Experimental data taken from patent publication US4170656A, “Compositions containing cis-2-benzoyl-3-hydroxy-crotononitrile used to treat inflammation and joint deterioration” (priority 1978, dated 1979).

How the values were obtained:
[1] = Adjuvant induced arthritis in rats (Freund's adjuvant); format: in vivo, Royal Hart, Wistar strain rats; settings: for Dead/Treated At 21 Days: days 0-13
Experimental: Groups of three Royal Hart, Wistar strain rats weighing 200±10 grams each were injected intradermally in the right hind paw with Freund's adjuvant (dried human tubercle bacilli in a mineral oil vehicle) at a dose of 2 mg./kg. of body weight. Test compound was administered orally in a 1.5% starch vehicle at various doses once daily on days 0 through 13 post challenge. Control rats were treated in a similar manner, but given only starch vehicle. On the 14th and 21st day post challenge the diameter of the injected paw (primary lesion) was measured by micrometer caliper. The volume of inflamed paws were estimated from these measurements and the results are expressed as percent inhibition of swelling as compared to controls. At the same time, the other inflamed sites, such as ears, paws and tail (seconday lesions) were observed and each rat was graded as to degree of inflammation and swelling present. The grading is based on a scale of 0 to 24, where 0 represents a complete absence of induced arthritic nodules and 24 represents the maximum degree of inflammation. The mean grade for each treated group is calculated and the effects of each compound are expressed as percent inhibition of the control grade. Table I records the results of tests conducted with a typical compound of the present invention and known anti-inflammatory agents.

[2] = Ultraviolet induced erythema in guinea pigs; format: in vivo, Albino guinea pigs; set-up: key: sum of 3 sites, each 0 = none, 0.5 = faint, 1.0 = distinct; max 3.0; settings: maximum 3.0
Experimental: Albino guinea pigs were depilitated on their flanks, the evening before testing, with a standard mixture of barium sulfide and gum acacia. On the morning of the test, groups of four guinea pigs were dosed by gavage one hour prior (-1 hour) to ultraviolet exposure. At 0 hour they were restrained in a plastic container which allows exposure of 3 circular spots. They were then exposed to ultraviolet irradiation from a "Hanovia" Kromayer lamp, model 10, for 60 seconds. At one and four hours, the degree of erythema for each of the three sites was assessed according to the following scoring system: 0= no erythema, 0.5=incomplete circle or faint erythema, and 1.0=complete circle of distinct erythema. Thus, the maximum score for each animal was 3.0.

[3] = Carrageenin induced paw edema in rats (acute anti-inflammatory activity); format: in vivo, Royal Hart, Wistar strain rats; settings: 250 mg./kg. by gavage; 5 hours after drug (4 hours after carrageenin); ratio greater than 1.41 is active
Experimental: In determining the acute anti-inflammatory activity of the cis-2-benzoyl-3-hydroxy-2-alkenonitriles of the present invention, Royal Hart, Wistar strain rats, ranging in weight from 80 to 90 grams were used. The rats were fasted overnight prior to dosing but had free access to water. The test compounds were administered in aqueous suspension, by gavage, in a volume of 1.7 ml. per 50 grams of rat [corresponds to hydration volume used by Winter, et al., Proc. Soc. […] The phlogistic agent used was carrageenin prepared as a sterile 1% suspension in 0.9% aqueous sodium chloride for routine testing. A volume of 0.05 ml. was injected through a 26 gauge needle into the plantar tissue of the right hind paw. Measurements were made 5 hours after drug administration (4 hours after carrageenin challenge). Volumes of both the normal and carrageenin inflammed feet were determined. The difference between the two measurements is considered to be the increased edema due to the carrageenin administration.

CC(=O)Oc1ccccc1C(=O)O [Aspirin]
% Inhibition of Control Grade (secondary lesion) ([1]; oral 50 mg./kg., Day 14): 12%
% Inhibition of Swelling (primary lesion) ([1]; oral 50 mg./kg., Day 14): 23%
Mean Weight Gain ([1]; oral 50 mg./kg., Day 14): 56 grams
% Inhibition of Control Grade (secondary lesion) ([1]; oral 50 mg./kg., Day 21): 9%
% Inhibition of Swelling (primary lesion) ([1]; oral 50 mg./kg., Day 21): 3%
Mean Weight Gain ([1]; oral 50 mg./kg., Day 21): 44 grams
Dead/Treated At 21 Days ([1]; oral 50 mg./kg.): 2/21
% Inhibition of Control Grade (secondary lesion) ([1]; oral 100 mg./kg., Day 14): 19%
% Inhibition of Swelling (primary lesion) ([1]; oral 100 mg./kg., Day 14): 36%
Mean Weight Gain ([1]; oral 100 mg./kg., Day 14): 48 grams
% Inhibition of Control Grade (secondary lesion) ([1]; oral 100 mg./kg., Day 21): 8%
% Inhibition of Swelling (primary lesion) ([1]; oral 100 mg./kg., Day 21): 13%
Mean Weight Gain ([1]; oral 100 mg./kg., Day 21): 53 grams
Dead/Treated At 21 Days ([1]; oral 100 mg./kg.): 18/63
% Inhibition of Control Grade (secondary lesion) ([1]; oral 200 mg./kg., Day 14): 26%
% Inhibition of Swelling (primary lesion) ([1]; oral 200 mg./kg., Day 14): 48%
Mean Weight Gain ([1]; oral 200 mg./kg., Day 14): 40 grams
% Inhibition of Control Grade (secondary lesion) ([1]; oral 200 mg./kg., Day 21): 17%
% Inhibition of Swelling (primary lesion) ([1]; oral 200 mg./kg., Day 21): 27%
Mean Weight Gain ([1]; oral 200 mg./kg., Day 21): 44 grams
Dead/Treated At 21 Days ([1]; oral 200 mg./kg.): 10/66
% Inhibition of Control Grade (secondary lesion) ([1]; oral 400 mg./kg., Day 14): 58%
% Inhibition of Swelling (primary lesion) ([1]; oral 400 mg./kg., Day 14): 73%
Mean Weight Gain ([1]; oral 400 mg./kg., Day 14): 41 grams
% Inhibition of Control Grade (secondary lesion) ([1]; oral 400 mg./kg., Day 21): 45%
% Inhibition of Swelling (primary lesion) ([1]; oral 400 mg./kg., Day 21): 48%
Mean Weight Gain ([1]; oral 400 mg./kg., Day 21): 55 grams
Dead/Treated At 21 Days ([1]; oral 400 mg./kg.): 18/57
Erythema Score (avg.) ([2]; oral 31.3 mg./kg., 1 hour): 1.2
Erythema Score (avg.) ([2]; oral 31.3 mg./kg., 4 hours): 2.3
Erythema Score (avg.) ([2]; oral 62.5 mg./kg., 1 hour): 0.8
Erythema Score (avg.) ([2]; oral 62.5 mg./kg., 4 hours): 2.0
Erythema Score (avg.) ([2]; oral 125 mg./kg., 1 hour): 0.1
Erythema Score (avg.) ([2]; oral 125 mg./kg., 4 hours): 2.0
Erythema Score (avg.) ([2]; oral 250 mg./kg., 1 hour): 0.1
Erythema Score (avg.) ([2]; oral 250 mg./kg., 4 hours): 1.2
C/T Edema Ratio [3]: 2.8

CCCCC1C(=O)N(c2ccccc2)N(c2ccccc2)C1=O [Phenylbutazone]
% Inhibition of Control Grade (secondary lesion) ([1]; oral 18.8 mg./kg., Day 14): 4%
% Inhibition of Swelling (primary lesion) ([1]; oral 18.8 mg./kg., Day 14): 31%
Mean Weight Gain ([1]; oral 18.8 mg./kg., Day 14): 50 grams
% Inhibition of Control Grade (secondary lesion) ([1]; oral 18.8 mg./kg., Day 21): 8%
% Inhibition of Swelling (primary lesion) ([1]; oral 18.8 mg./kg., Day 21): 7%
Mean Weight Gain ([1]; oral 18.8 mg./kg., Day 21): 45 grams
Dead/Treated At 21 Days ([1]; oral 18.8 mg./kg.): 2/21
% Inhibition of Control Grade (secondary lesion) ([1]; oral 37.5 mg./kg., Day 14): 18%
% Inhibition of Swelling (primary lesion) ([1]; oral 37.5 mg./kg., Day 14): 56%
Mean Weight Gain ([1]; oral 37.5 mg./kg., Day 14): 53 grams
% Inhibition of Control Grade (secondary lesion) ([1]; oral 37.5 mg./kg., Day 21): 13%
% Inhibition of Swelling (primary lesion) ([1]; oral 37.5 mg./kg., Day 21): 14%
Mean Weight Gain ([1]; oral 37.5 mg./kg., Day 21): 53 grams
Dead/Treated At 21 Days ([1]; oral 37.5 mg./kg.): 5/39
% Inhibition of Control Grade (secondary lesion) ([1]; oral 75 mg./kg., Day 14): 27%
% Inhibition of Swelling (primary lesion) ([1]; oral 75 mg./kg., Day 14): 62%
Mean Weight Gain ([1]; oral 75 mg./kg., Day 14): 51 grams
% Inhibition of Control Grade (secondary lesion) ([1]; oral 75 mg./kg., Day 21): 15%
% Inhibition of Swelling (primary lesion) ([1]; oral 75 mg./kg., Day 21): 28%
Mean Weight Gain ([1]; oral 75 mg./kg., Day 21): 50 grams
Dead/Treated At 21 Days ([1]; oral 75 mg./kg.): 2/39
% Inhibition of Control Grade (secondary lesion) ([1]; oral 150 mg./kg., Day 14): 54%
% Inhibition of Swelling (primary lesion) ([1]; oral 150 mg./kg., Day 14): 75%
Mean Weight Gain ([1]; oral 150 mg./kg., Day 14): 40 grams
% Inhibition of Control Grade (secondary lesion) ([1]; oral 150 mg./kg., Day 21): 31%
% Inhibition of Swelling (primary lesion) ([1]; oral 150 mg./kg., Day 21): 44%
Mean Weight Gain ([1]; oral 150 mg./kg., Day 21): 50 grams
Dead/Treated At 21 Days ([1]; oral 150 mg./kg.): 2/27
Erythema Score (avg.) ([2]; oral 7.8 mg./kg., 1 hour): 1.1
Erythema Score (avg.) ([2]; oral 7.8 mg./kg., 4 hours): 2.9
Erythema Score (avg.) ([2]; oral 15.6 mg./kg., 1 hour): 0.4
Erythema Score (avg.) ([2]; oral 15.6 mg./kg., 4 hours): 2.3
Erythema Score (avg.) ([2]; oral 31.3 mg./kg., 1 hour): 0.4
Erythema Score (avg.) ([2]; oral 31.3 mg./kg., 4 hours): 1.7
Erythema Score (avg.) ([2]; oral 62.5 mg./kg., 1 hour): 0.3
Erythema Score (avg.) ([2]; oral 62.5 mg./kg., 4 hours): 0.9
Erythema Score (avg.) ([2]; oral 125 mg./kg., 1 hour): 0.1
Erythema Score (avg.) ([2]; oral 125 mg./kg., 4 hours): 1.1
Erythema Score (avg.) ([2]; oral 250 mg./kg., 1 hour): 0
Erythema Score (avg.) ([2]; oral 250 mg./kg., 4 hours): 0.5
C/T Edema Ratio [3]: 2.3

C/C(O)=C(\C#N)C(=O)c1ccccc1 [Cis-2-benzoyl-3-hydroxy-crotononitrile, Cis-2-benzoyl-3-hydroxycrotononitrile]
% Inhibition of Control Grade (secondary lesion) ([1]; oral 25 mg./kg., Day 14): 10%
% Inhibition of Swelling (primary lesion) ([1]; oral 25 mg./kg., Day 14): 26%
Mean Weight Gain ([1]; oral 25 mg./kg., Day 14): 37 grams
% Inhibition of Control Grade (secondary lesion) ([1]; oral 25 mg./kg., Day 21): 1%
% Inhibition of Swelling (primary lesion) ([1]; oral 25 mg./kg., Day 21): 14%
Mean Weight Gain ([1]; oral 25 mg./kg., Day 21): 28 grams
Dead/Treated At 21 Days ([1]; oral 25 mg./kg.): 3/18
% Inhibition of Control Grade (secondary lesion) ([1]; oral 50 mg./kg., Day 14): 14%
% Inhibition of Swelling (primary lesion) ([1]; oral 50 mg./kg., Day 14): 64%
Mean Weight Gain ([1]; oral 50 mg./kg., Day 14): 51 grams
% Inhibition of Control Grade (secondary lesion) ([1]; oral 50 mg./kg., Day 21): 17%
% Inhibition of Swelling (primary lesion) ([1]; oral 50 mg./kg., Day 21): 54%
Mean Weight Gain ([1]; oral 50 mg./kg., Day 21): 45 grams
Dead/Treated At 21 Days ([1]; oral 50 mg./kg.): 3/36
% Inhibition of Control Grade (secondary lesion) ([1]; oral 100 mg./kg., Day 14): 38%
% Inhibition of Swelling (primary lesion) ([1]; oral 100 mg./kg., Day 14): 68%
Mean Weight Gain ([1]; oral 100 mg./kg., Day 14): 43 grams
% Inhibition of Control Grade (secondary lesion) ([1]; oral 100 mg./kg., Day 21): 46%
% Inhibition of Swelling (primary lesion) ([1]; oral 100 mg./kg., Day 21): 53%
Mean Weight Gain ([1]; oral 100 mg./kg., Day 21): 41 grams
Dead/Treated At 21 Days ([1]; oral 100 mg./kg.): 5/18
progression of the arthritis and associated joint deterioration ([1]; oral, days 0 through 13): appears to suppress the progression of the arthritis and associated joint deterioration
Erythema Score (avg.) ([2]; oral 15.6 mg./kg., 1 hour): 2.3
Erythema Score (avg.) ([2]; oral 15.6 mg./kg., 4 hours): 2.5
Erythema Score (avg.) ([2]; oral 31.3 mg./kg., 1 hour): 0.8
Erythema Score (avg.) ([2]; oral 31.3 mg./kg., 4 hours): 2.3
Erythema Score (avg.) ([2]; oral 62.5 mg./kg., 1 hour): 0.8
Erythema Score (avg.) ([2]; oral 62.5 mg./kg., 4 hours): 2.4
Erythema Score (avg.) ([2]; oral 125 mg./kg., 1 hour): 0
Erythema Score (avg.) ([2]; oral 125 mg./kg., 4 hours): 1.3
C/T Edema Ratio [3]: 2.3
